Reference: patent US11976083B2, “Inhibitors of peptidylarginine deiminases” (Gilead Sciences, Inc., priority 2020, dated 2024)

target: T1, human PAD4 (Homo sapiens, UniProt Q9UM07); assay: In vitro PAD4 BAEE biochemical assay; settings: BAEE substrate 3 mM, 5 nM PAD4, 2 mM calcium chloride; geometric mean of multiple experiments
T1 construct: human PAD4 (NM_012387), A2-P663, was PCR amplified; His-SUMO (N, cleaved yes); made in house; host or cells: E. coli BL21(DE3)
Procedure, shortened: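 Recombinant PAD4 (5 nM final) with 2 mM CaCl2 was preincubated with compound for 30 min at 25 °C in MOPS pH 7.6 buffer with DTT, then reacted with 3 mM BAEE for 2 h at 25 °C. Released ammonia was detected fluorimetrically with o-phthalaldehyde/DTT; IC50 from four-parameter fit, geometric mean of experiments.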

T1 sequence (Q9UM07 2-663): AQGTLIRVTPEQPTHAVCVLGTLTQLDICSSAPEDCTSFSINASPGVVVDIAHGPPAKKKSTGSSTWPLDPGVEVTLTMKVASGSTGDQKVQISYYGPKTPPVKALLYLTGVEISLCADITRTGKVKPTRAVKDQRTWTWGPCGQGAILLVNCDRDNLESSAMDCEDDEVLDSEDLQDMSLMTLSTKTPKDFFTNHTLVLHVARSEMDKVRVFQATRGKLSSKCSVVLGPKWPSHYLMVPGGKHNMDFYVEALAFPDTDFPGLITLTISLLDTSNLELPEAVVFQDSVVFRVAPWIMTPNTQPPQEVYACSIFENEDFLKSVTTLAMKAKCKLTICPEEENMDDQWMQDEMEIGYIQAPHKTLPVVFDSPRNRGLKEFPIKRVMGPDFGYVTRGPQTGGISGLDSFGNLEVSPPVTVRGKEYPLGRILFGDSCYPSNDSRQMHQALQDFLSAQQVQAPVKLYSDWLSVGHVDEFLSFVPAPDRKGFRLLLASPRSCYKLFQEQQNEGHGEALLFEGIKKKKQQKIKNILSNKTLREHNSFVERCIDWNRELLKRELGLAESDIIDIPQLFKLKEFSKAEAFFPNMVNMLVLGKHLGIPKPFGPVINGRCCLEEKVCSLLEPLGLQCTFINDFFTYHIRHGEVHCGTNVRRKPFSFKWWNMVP

Row | Compound | IC50 [nM]
1 | COc1cc(C(=O)N[C@H]2CNCC[C@@H]2F)cc2nc(-c3cc4ccc5nc4n3CCCCCCC(F)(F)C(=O)N[C@@H]5C)n(C)c12 [Example 375, 2-[(11~{R})-8,8-difluoro-11-methyl-9-oxo-1,10,19-triazatricyclo[10.5.2.0^{15,18}]nonadeca-12(19),13,15(18),16-tetraen-17-yl]-~ {N}-[(3~{S},4~{S})-4-fluoro-3-piperidyl]-7-methoxy-1-methyl-benzimidazole-5-carboxamide] | 109
2 | COc1cc(C(=O)N[C@@H]2CCCCNC2)cc2nc(-c3cc4ccc5nc4n3CCCCCCC3(CC3)C(=O)N[C@@H]5C)n(C)c12 [Example 77, ~{N}-[(3~{R})-azepan-3-yl]-7-methoxy-1-methyl-2-[(11~{R})-11-methyl-9-oxo-spiro[1,10,19-triazatricyclo[10.5.2.0^{15,18}]nonadeca-12(19),13,15(18),16-tetraene-8,1′-cyclopropane]-17-yl]benzimidazole-5-carboxamide] | 367
3 | C[C@H]1NC(=O)[C@@H]2C[C@H]2CCCCCn2c(-c3nc4cc(C(=O)N[C@H]5CNCC[C@@H]5F)cnc4n3C3CC3)cc3ccc1nc32 [Example 573, 3-cyclopropyl-~{N}-[(3~ {S},4~{S})-4-fluoro-3-piperidyl]-2-[(2~{R},5~ {R},7~{R})-2-methyl-4-oxo-3,13,19-triazatetracyclo [11.5.2.0^{5,7}.0^{16,20}]icosa-1(19),14,16(20), 17-tetraen-14-yl]imidazo [4,5-b]pyridine-6-carboxamide] | 23
4 | COc1cc(C(=O)N2CC[C@@H](OC)[C@@H](N)C2)cc2nc(-c3cc4ccc5nc4n3CCCCC[C@@H]3C[C@@H]3C(=O)N[C@@H]5C)n(C)c12 [Example 524, (2~{R},5~{S},7~{R})-14-[5-[(3~{S},4~{R})-3-amino-4-methoxy-piperidine-1-carbonyl]-7-methoxy-1-methyl-benzimidazol-2-yl]-2-methyl-3,13,19-triazatetracyclo[11.5.2.0^ {5,7}.0^{16,20}]icosa-1(19),14,16(20),17-tetraen-4-one] | 388
5 | COc1cc(C(=O)N2CCC[C@@H](N)C2)cc2nc(-c3cc4ccc5nc4n3CCCCCCC(C)(C)C(=O)N[C@@H]5C)n(C)c12 [Example 16, (11~{R})-17-[5-[(3~{R})-3-aminopiperidine-1-carbonyl]-7-methoxy-1-methyl-benzimidazol-2-yl]-8,8,11-trimethyl-1,10,19-triazatricyclo[10.5.2.0^{15,18}]nonadeca-12(19),13,15(18),16-tetraen-9-one] | 67
6 | COc1cc(C(=O)N2CC[C@@H](OC)[C@@H](N)C2)cc2nc(-c3cc4ccc5cc4n3CCCCCc3nccnc3C(=O)N[C@@H]5C)n(C)c12 [Example 576, (2~{R})-17-[5-[(3~{S},4~ {R})-3-amino-4-methoxy-piperidine-1-carbonyl]-7-methoxy-1-methyl-benzimidazol-2-yl]-2-methyl-3,6,9,16-tetrazatetracyclo[14.5.2.0^ {5,10}.0^{19,23}] tricosa-1(22),5(10),6,8,17, 19(23),20-heptaen-4-one] | 68
7 | C[C@H]1NC(=O)[C@@H]2C[C@H]2CCCCCn2c(-c3nc4cc(C(=O)N[C@H]5CNCC[C@@H]5F)c(F)cc4n3C3CC3)cc3ccc1nc32 [Example 182, 1-cyclopropyl-6-fluoro-~{N}-[(3~{S},4~{S})-4-fluoro-3-piperidyl]-2-[(2~{R},5~{R},7~{R})-2-methyl-4-oxo-3,13,19-triazatetracyclo[11.5.2.0^{5,7}.0^{16,20}]icosa-1(19),14,16(20),17-tetraen-14-yl]benzimidazole-5-carboxamide] | 31
8 | COc1cc(C(=O)N2CCC[C@@H](N)[C@H]2C)cc2nc(-c3cc4ccc5nc4n3CCCCCCC3(COC3)C(=O)N[C@@H]5C)n(C)c12 [Example 799, (11~{R})-17-[5-[(2~{R},3~{R})-3-amino-2-methyl-piperidine-1-carbonyl]-7-methoxy-1-methyl-benzimidazol-2-yl]-11-methyl-spiro[1,10,19-triazatricyclo[10.5.2.0^ {15,18}]nonadeca-12,14,16,18-tetraene-8,3′-oxetane]-9-one] | 12
9 | (2~{R})-17-[5-[(1~{S},4~{R}, 5~{R})-4-amino-2-azabicyclo [3.2.1]octane-2-carbonyl]- 7-(difluoromethoxy)-1-methyl- benzimidazol-2-yl]-8-chloro- 2-methyl-3,9,16,22- tetrazatetracyclo[14.5.2.0^ {5,10).0^{19,23}]tricosa- 1(22),5(10),6,8,17,19(23),20- heptaen-4-one [Example 762] | 26

More lines, in order of falling IC50, values ahead:

Row | IC50 [nM] | Compound
10 | 268 | COc1cc(C(=O)N2CC[C@@H](OC)[C@@H](N)C2)cc2nc(-c3cc4ccc5nc4n3CCCCC[C@H]3C(F)(F)[C@]3(C)C(=O)N[C@@H]5C)n(C)c12 [Example 694, (2~{R},5~{S},7~{R})-14-[5-[(3~{S},4~{R})-3-amino-4-methoxy-piperidine-1-carbonyl]-7-methoxy-1-methyl-benzimidazol-2-yl]-6,6-difluoro-2,5-dimethyl-3,13,19-triazatetracyclo[11.5.2.0^ {5,7}.0^{16,20}]icosa-1(19), 14,16(20),17-tetraen-4-one]
11 | 241 | COc1cc(C(=O)N2CCC[C@@H](N)C2)cc2nc(-c3cc4ccc5nc4n3CCCCC[C@H]3C[C@@H]3C(=O)N[C@@H]5C)n(C)c12 [Example 158, (2~{R},5~{S},7~{S})-14-[5-[(3~{R})-3-aminopiperidine-1-carbonyl]-7-methoxy-1-methyl-benzimidazol-2-yl]-2-methyl-3,13,19-triazatetracyclo[11.5.2.0^{5,7}.0^{16,20}] icosa-1(19),14,16(20),17-tetraen-4-one]
12 | 146 | COc1cc(C(=O)N2CC[C@@H](OC)[C@@H](N)C2)cc2nc(-c3cc4ccc5nc4n3CC(F)(F)CCCCC3(CC3)C(=O)N[C@@H]5C)n(C)c12 [Example 823, (11~{R})-17-[5-[(3~ {S},4~{R})-3-amino-4-methoxy-piperidine-1-carbonyl]-7-methoxy-1-methyl-benzimidazol-2-yl]-3,3-difluoro-11-methyl-spiro[1,10,19-triazatricyclo[10.5.2.0^ {15,18}]nonadeca-12 (19),13,15(18),16-tetraene-8,1′-cyclopropane]-9-one]
13 | 85 | COc1cc(C(=O)N2CCC[C@@H](N)C2)cc2nc(-c3cc4ccc5nc4n3CC[C@H]3C[C@H]3COCCC(=O)N[C@@H]5C)n(C)c12 [Example 306, (4~{R},6~{R},13~{R})-19-[5-[(3~{R})-3-aminopiperidine-1-carbonyl]-7-methoxy-1-methyl-benzimidazol-2-yl]-13-methyl-8-oxa-1,12,21-triazatetracyclo[12.5.2.0^{4,6}.0^{17,20}] henicosa-14(21),15,17(20),18-tetraen-11-one]
14 | 82 | COc1cc(C(=O)N2CCC[C@@H](N)C2)cc2nc(-c3cc4ccc5cc4n3CCCOC[C@H]3C[C@H]3C(=O)N[C@@H]5C)n(C)c12 [Example 307, (2~{R},5~{R},7~{S})-14-[5-[(3~{R})-3-aminopiperidine-1-carbonyl]-7-methoxy-1-methyl-benzimidazol-2-yl]-2-methyl-9-oxa-3,13-diazatetracyclo[11.5.2.0^{5,7}.0^{16,20}] icosa-1(19),14,16(20),17-tetraen-4-one]
15 | 72 | COc1cc(C(=O)N2CCC[C@@H](N)C2)cc2nc(-c3cc4ccc5nc4n3CCCOC[C@H]3C[C@H]3C(=O)N[C@@H]5C)n(C)c12 [Example 308, (2~{R},5~{R},7~{S})-14-[5-[(3~{R})-3-aminopiperidine-1-carbonyl]-7-methoxy-1-methyl-benzimidazol-2-yl]-2-methyl-9-oxa-3,13,19-triazatetracyclo[11.5.2.0^{5,7}.0^{16,20}] icosa-1(19),14,16(20),17-tetraen-4-one]
16 | 64 | COc1cc(C(=O)N2CC[C@@H](OC)[C@@H](N)C2)cc2nc(-c3cc4ccc5nc4n3CCCCCC[C@@]3(CCCO3)C(=O)N[C@@H]5C)n(C)c12 [Example 687, (8~{R},11~{R})-17-[5-[(3~{S),4~{R})-3-amino-4-methoxy-piperidine-1-carbonyl]-7-methoxy-1-methyl-benzimidazol-2-yl]-11-methyl-spiro[1,10,19-triazatricyclo[10.5.2.0^ {15,18}]nonadeca-12(19),13,15(18),16-tetraene-8,2′-tetrahydrofuran]-9-one]
17 | 55 | C[C@H]1NC(=O)[C@@H]2C[C@H]2CCCC(F)(F)Cn2c(-c3nc4cc(C(=O)N5C[C@H](N)[C@@H]6CC[C@H]5C6)c(F)c(F)c4n3C3CC3)cc3ccc1nc32 [Example 466, (2~{R},5~{R},7~{R})-14-[5-[(1~{S),4~{R},5~{R})-4-amino-2-azabicyclo[3.2.1]octane-2-carbonyl]-1-cyclopropyl-6,7-difluoro-benzimidazol-2-yl]-11,11-difluoro-2-methyl-3,13,19-triazatetracyclo[11.5.2.0^{5,7}.0^{16,20}] icosa-1(19),14,16(20),17-tetraen-4-one]
18 | 27 | C[C@H]1NC(=O)[C@@H]2C[C@H]2CCCCCn2c(-c3nc4cc(C(=O)N[C@H]5CNCC[C@@H]5F)c(F)cc4n3CC3(F)CC3)cc3ccc1nc32 [Example 405, 6-fluoro-1-[(1-fluorocyclopropyl)methyl]-~{N}-[(3~{S},4~{S})-4-fluoro-3-piperidyl]-2-[(2~{R},5~{R},7~{R})-2-methyl-4-oxo-3,13,19-triazatetracyclo[11.5.2.0^{5,7}.0^{16,20}]icosa-1(19),14,16(20),17-tetraen-14-yl]benzimidazole-5-carboxamide]
19 | 26 | C[C@H]1NC(=O)c2c(Cl)cncc2CCCCCn2c(-c3nc4cc(C(=O)N[C@H]5CNCC[C@@H]5F)c(F)cc4n3C3CC3)cc3ccc1nc32 [Example 354, 2-[(2~{R})-6-chloro-2-methyl-4-oxo-3,8,16,22-tetrazatetracyclo[14.5.2.0^{5,10}.0^{19,23}]tricosa-1(22),5,7,9,17,19(23),20-heptaen-17-yl]-1-cyclopropyl-6-fluoro- ~{N}-[(3~{S},4~{S})-4-fluoro-3-piperidyl]benzimidazole-5-carboxamide]
